Measured values reported in ChEMBL document CHEMBL1201862, “PubChem BioAssay data set” (2004).
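Exposure lasted 48 hours, with cells grown in 96-well plates and compounds tested at five concentrations. Here, GI50 denotes the concentration required for 50% inhibition of growth.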 Activity calls are given as the source filed them. No stated cut-off is given here; in the data, active = GI50 up to about 1.1 µM and inactive = higher.

What was measured:
Assay in all cases: NCI-60 cell line screen, 48 h
SNB-19 = tested on: SNB-19
IGROV-1 = tested on: IGROV-1
OVCAR-3 = tested on: OVCAR-3
ACHN = tested on: ACHN
UO-31 = tested on: UO-31
OVCAR-8 = tested on: OVCAR-8
EKVX = tested on: EKVX
SN12C = tested on: SN12C
HT-29 = tested on: HT-29
HOP-62 = tested on: HOP-62
SF-295 = tested on: SF-295
OVCAR-4 = tested on: OVCAR-4
K562 = tested on: K562
HCT-15 = tested on: HCT-15
NCI-H522 = tested on: NCI-H522
SK-MEL-28 = tested on: SK-MEL-28
HOP-92 = tested on: HOP-92
SR = tested on: SR

SMILES | GI50 (SNB-19) | GI50 (IGROV-1) | GI50 (OVCAR-3) | GI50 (ACHN) | GI50 (UO-31) | GI50 (OVCAR-8) | GI50 (EKVX) | GI50 (SN12C) | GI50 (HT-29) | GI50 (HOP-62) | GI50 (SF-295) | GI50 (OVCAR-4) | GI50 (K562) | GI50 (HCT-15) | GI50 (NCI-H522) | GI50 (SK-MEL-28) | GI50 (HOP-92) | GI50 (SR)
COC(=O)C1=C(C[S+]([O-])c2ccccc2[N+](=O)[O-])ON(C)C1c1ccccc1 (stereo not given) | > 100 µM (inactive) | > 100 µM (inactive) | 40.5 µM (inactive) | 31.2 µM (inactive) | 46.8 µM (inactive) | 21.3 µM (inactive) | 55.6 µM (inactive) | 19 µM (inactive) | 32.1 µM (inactive) | > 100 µM (inactive) | 65.8 µM (inactive) | 66.7 µM (inactive) | 22.4 µM (inactive) | 22.5 µM | 18.4 µM (inactive) | – | – | –
COc1ccc(-c2ccccc2)c(N/N=C2\CCCNC2=O)c1 | 81.7 µM (inactive) | > 100 µM (inactive) | > 100 µM (inactive) | > 100 µM (inactive) | > 100 µM (inactive) | > 100 µM (inactive) | > 100 µM (inactive) | > 100 µM (inactive) | > 100 µM (inactive) | 19.6 µM (inactive) | > 100 µM (inactive) | – | – | > 100 µM | > 100 µM (inactive) | > 100 µM (inactive) | > 100 µM (inactive) | 3.55 µM (inactive)
C[n+]1c2ccccc2c(NC(CCCNC(=N)N)C(=O)O)c2ccccc21 (stereo not given) | > 100 µM (inactive) | > 100 µM (inactive) | > 100 µM (inactive) | > 100 µM (inactive) | 75.2 µM (inactive) | > 100 µM (inactive) | > 100 µM (inactive) | > 100 µM (inactive) | > 100 µM (inactive) | > 100 µM (inactive) | > 100 µM (inactive) | > 100 µM (inactive) | > 100 µM (inactive) | > 100 µM | 99.1 µM (inactive) | – | > 100 µM (inactive) | > 100 µM (inactive)
CN1c2ccccc2N(C)C23N(C)c4ccccc4N(C)C12N(C)c1ccccc1N3C (stereo not given) | > 100 µM (inactive) | > 100 µM (inactive) | 33.6 µM (inactive) | > 100 µM (inactive) | > 100 µM (inactive) | > 100 µM (inactive) | > 100 µM (inactive) | > 100 µM (inactive) | > 100 µM (inactive) | 87.1 µM (inactive) | > 100 µM (inactive) | – | > 100 µM (inactive) | > 100 µM | > 100 µM (inactive) | > 100 µM (inactive) | 22.9 µM (inactive) | –
O=C1C(Cl)=C(Cl)C(=O)N1C1C2CC3CC(C2)CC1C3 (stereo not given) | > 100 µM (inactive) | > 100 µM (inactive) | – | > 100 µM (inactive) | > 100 µM (inactive) | > 76.4 µM (inactive) | > 100 µM (inactive) | > 100 µM (inactive) | > 100 µM (inactive) | > 100 µM (inactive) | > 100 µM (inactive) | > 100 µM (inactive) | 28 µM (inactive) | > 100 µM | 27.9 µM (inactive) | > 100 µM (inactive) | > 100 µM (inactive) | 31 µM (inactive)
Cc1ccc(C2C(Cl)C(=O)N2NC(=O)c2ccc(N)cc2)cc1 (stereo not given) | 18.4 µM (inactive) | 8.97 µM (inactive) | 17.4 µM (inactive) | 31.9 µM (inactive) | 30 µM (inactive) | 14.4 µM (inactive) | 28.8 µM (inactive) | 22.7 µM (inactive) | 21.2 µM (inactive) | 22.4 µM (inactive) | 20.3 µM (inactive) | 29 µM (inactive) | 22.5 µM (inactive) | 15.7 µM | 12 µM (inactive) | 12.4 µM (inactive) | 14.5 µM (inactive) | –
O=C1c2ccccc2C(=O)c2nc3c(O)cccc3cc21 | 14.7 µM (inactive) | 57.8 µM (inactive) | 1.87 µM (inactive) | 27 µM (inactive) | 14.5 µM (inactive) | 26 µM (inactive) | 14.5 µM (inactive) | 25.4 µM (inactive) | 21 µM (inactive) | 38.9 µM (inactive) | 12.7 µM (inactive) | 12.9 µM (inactive) | 5.83 µM (inactive) | 13 µM | 4.97 µM (inactive) | > 100 µM (inactive) | – | 3.18 µM (inactive)
CN1CCc2cc(O)c3cc2C1Cc1ccc(cc1)Oc1cc(ccc1O)CC1c2c(cc4c(c2O3)OCO4)CCN1C (stereo not given) | 44.6 µM (inactive) | 25.6 µM (inactive) | 75 µM (inactive) | 28.7 µM (inactive) | 1.6 µM (inactive) | 19.8 µM (inactive) | 18.1 µM (inactive) | 32.9 µM (inactive) | 21.2 µM (inactive) | – | 21.5 µM (inactive) | 28.8 µM (inactive) | 17.2 µM (inactive) | 22.5 µM | – | 21.3 µM (inactive) | – | 28.8 µM (inactive)
C1=C(c2ccccc2)SC(N2CCCCC2)S1 (stereo not given) | > 100 µM (inactive) | > 100 µM (inactive) | > 100 µM (inactive) | – | > 100 µM (inactive) | – | 86.7 µM (inactive) | > 100 µM (inactive) | > 100 µM (inactive) | > 100 µM (inactive) | > 100 µM (inactive) | > 100 µM (inactive) | 52.2 µM (inactive) | > 100 µM | 66.4 µM (inactive) | – | > 100 µM (inactive) | 90.8 µM (inactive)
